Laboratory results: patent US9650340B2, “5-fluoro-N-(pyridin-2-yl)pyridin-2-amine derivatives containing a sulfoximine group” (BAYER PHARMA AKTIENGESELLSCHAFT, priority 2012, dated 2017)
Values after ≈ are worked out from the molar mass of the structure shown.

How the values were obtained:
[1] = biological target: human carbonic anhydrase-2 (Homo sapiens, UniProt P00918); assay: Carbonic anhydrase assay, carbonic anhydrase-2; assay type: biochemical; settings: read-out: Inhibition of Carbonic anhydrase-2 IC50
Experimental: (§1) 6. Carbonic Anhydrase Assay
(§2) The principle of the assay is based on the hydrolysis of 4-nitrophenyl acetate by carbonic anhydrases (Pocker & Stone, Biochemistry, 1967, 6, 668), with subsequent photometric determination of the dye product 4-nitrophenolate at 400 nm by means of a 96-channel spectral photometer.
(§3) 2 μL of the test compounds, dissolved in DMSO (100-fold final concentration), in a concentration range of 0.03-10 μmol/L (final), was pipetted as quadruplicates into the wells of a 96-hole microtiter plate. Wells that contained the solvent without test compounds were used as reference values (1. Wells without carbonic anhydrase for correction of the non-enzymatic hydrolysis of the substrate, and 2. Wells with carbonic anhydrase for determining the activity of the non-inhibited enzyme).
(§4) 188 μL of assay buffer (10 mmol/L of Tris/HCl, pH 7.4, 80 mmol/L of NaCl), with or without 3 units/well of carbonic anhydrase-1 [=human carbonic anhydrase-1 (Sigma, #C4396)] in order to determine carbonic anhydrase-1 inhibition or 3 units/well of carbonic anhydrase-2 [=human carbonic anhydrase-2 (Sigma, #C6165)] for measuring carbonic anhydrase-2 inhibition, was pipetted into the wells of the microtiter plate.

Caco-2 permeation assay = assay type: in vitro ADME, human; settings: human; for Papp A→B at 2 h, 2 µM / Papp B→A at 2 h, 2 µM: Caco-2, pH 7.2, Caco-2, 2 μM test compound; for Papp A→B at 2 h, 2 µM: apical to basolateral, read-out: Papp A-B (Mari); for Papp B→A at 2 h, 2 µM: basolateral to apical, read-out: Papp B-A (Mari); for efflux ratio at 2 h, 2 µM: Caco-2, pH 7.2, Caco-2, 2 μM, Papp B-A / Papp A-B
Experimental: (§5) 5. Caco-2 Permeation Assay:
(§6) Caco-2 cells (purchased from DSMZ Braunschweig, Germany) were seeded at a density of 4.5×10^4 cells per well on 24 well insert plates, 0.4 μm pore size, and grown for 15 days in DMEM medium supplemented with 10% fetal bovine serum, 1% GlutaMAX (100×, GIBCO), 100 U/mL penicillin, 100 μg/mL streptomycin (GIBCO) and 1% non essential amino acids (100 ×). Cells were maintained at 37° C. in a humified 5% CO2 atmosphere. Medium was changed every 2-3 day. Before running the permeation assay, the culture medium was replaced by a FCS—free hepes-carbonate transport buffer (pH 7.2). For assessment of monolayer integrity the transepithelial electrical resistance (TEER) was measured. Test compounds were predissolved in DMSO and added either to the apical or basolateral compartment in final concentration of 2 μM in transport buffer. Before and after 2 h incubation at 37° C. samples were taken from both compartments. Analysis of compound content was done after precipitation with methanol by LC/MS/MS analysis. Permeability (Papp) was calculated in the apical to basolateral (A→B) and basolateral to apical (B→A) directions. The apparent permeability was calculated using following equation: Papp=(Vr/Po)(1/S)(P2/t)
(§7) Where Vr is the volume of medium in the receiver chamber, Po is the measured peak area or height of the test drug in the donor chamber at t=o, S the surface area of the monolayer, P2 is the measured peak area of the test drug in the acceptor chamber after 2 h of incubation, and t is the incubation time. The efflux ratio basolateral (B) to apical (A) was calculated by dividing the Papp B-A by the Papp A-B. In addition the compound recovery was calculated. The following reference compounds were used for the classification of the permeability class: Antipyrine, Pyrazosin, Verapamil, Fluvastatin, Cimetidine, Ranitidine, Atenolol, Sulfasalazine.

[2] = biological target: T1, human carbonic anhydrase-1 (Homo sapiens, UniProt P00915); assay: Carbonic anhydrase assay, carbonic anhydrase-1; assay type: biochemical; settings: read-out: Inhibition of Carbonic anhydrase-1 IC50
T1 construct: purchased Sigma C4396
Experimental: as §1, §2, §3, §4

[3] = Equilibrium shake flask solubility assay, thermodynamic solubility in water pH 6.5; assay type: physicochemical; settings: phosphate buffer pH 6.5, 24 h, room temperature; for solubility at 24 h: phosphate buffer, pH 6.5, aqueous buffer, thermodynamic from solid
Experimental: 4. Equilibrium Shake Flask Solubility Assay:
4a) Thermodynamic Solubility in Water
The thermodynamic solubility of compounds in water was determined by an equilibrium shake flask method (see for example: E. H. Kerns, L. Di: Drug-like Properties: Concepts, Structure Design and Methods, 276-286, Burlington, Mass., Academic Press, 2008). A saturated solution of the drug was prepared and the solution was mixed for 24 h to ensure that equilibrium was reached. The solution was centrifuged to remove the insoluble fraction and the concentration of the compound in solution was determined using a standard calibration curve. To prepare the sample, 2 mg solid compound was weighed in a 4 mL glass vial. 1 mL phosphate buffer pH 6.5 was added. The suspension was stirred for 24 hrs at room temperature. The solution was centrifuged afterwards. To prepare the sample for the standard calibration, 2 mg solid sample was dissolved in 30 mL acetonitrile. After sonification the solution was diluted with water to 50 mL. Sample and standards were quantified by HPLC with UV-detection. For each sample two injection volumes (5 and 50 μl) in triplicates were made. Three injection volumes (5 μl, 10 μl and 20 μl) were made for the standard.
The areas of sample- and standard injections as well as the calculation of the solubility value (in mg/l) were determined by using HPLC software (Waters Empower 2 FR).

Caco-2 cell monolayers = assay: Caco-2 permeation assay; assay type: in vitro ADME, human; settings: for Papp A-B (Mari) / Papp B-A (Mari): Caco-2, 2 μM test compound; for Papp A-B (Mari): apical to basolateral; for Papp B-A (Mari): basolateral to apical
Experimental: as §5, §6, §7

T1 sequence (P00915 whole entry): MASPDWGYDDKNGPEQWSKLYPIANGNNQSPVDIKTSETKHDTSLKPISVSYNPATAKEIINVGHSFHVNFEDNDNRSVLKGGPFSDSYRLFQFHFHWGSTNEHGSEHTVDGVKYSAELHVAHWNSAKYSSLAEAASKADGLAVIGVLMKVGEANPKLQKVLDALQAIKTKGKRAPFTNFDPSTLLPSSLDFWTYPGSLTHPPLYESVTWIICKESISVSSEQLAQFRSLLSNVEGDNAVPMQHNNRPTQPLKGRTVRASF

Compound	Papp A→B at 2 h, 2 µM (Caco-2 permeation assay) [×10⁻⁶ cm/s]	Papp B→A at 2 h, 2 µM (Caco-2 permeation assay) [×10⁻⁶ cm/s]	efflux ratio at 2 h, 2 µM (Caco-2 permeation assay)	further results
COc1cc(F)ccc1-c1cc(Nc2cc(CS(C)(=N)=O)ccn2)ncc1F (racemic) [Example 1, (rac)-5-Fluoro-4-(4-fluoro-2-methoxyphenyl)-N-{4-[(S-methylsulfonimidoyl)methyl]pyridin-2-yl}pyridin-2-amine]	15.5	18		IC50 [1]: > 10 µM; IC50 [2]: > 10 µM; solubility at 24 h [3]: 13 µg/mL (≈ 32.1 µM)
COc1cc(F)ccc1-c1cc(Nc2cc(CS(=N)(=O)CCO)ccn2)ncc1F (racemic) [Example 8, (rac)-2-{S-[(2-{[5-Fluoro-4-(4-fluoro-2-methoxyphenyl)pyridin-2-yl]amino}pyridin-4-yl)methyl]sulfonimidoyl}ethanol]	4.1	24.6	6	
CCS(=N)(=O)Cc1ccnc(Nc2cc(-c3ccc(F)cc3OC)c(F)cn2)c1 (racemic) [Example 30, (rac)-N-{4-[(S-Ethylsulfonimidoyl)-methyl]pyridin-2-yl}-5-fluoro-4-(4-fluoro-2-methoxyphenyl)pyridin-2-amine]	18.6	17.2	0.92	
COc1cc(F)ccc1-c1cc(Nc2cc(CS(C)(=N)=O)ccn2)ncc1F (single isomer, unassigned; (+)) [Example 2, (+)-5-Fluoro-4-(4-fluoro-2-methoxyphenyl)-N-{4-[(S-methylsulfonimidoyl)methyl]pyridin-2-yl}pyridin-2-amine]	16.6	18.6		solubility at 24 h [3]: 25 µg/mL (≈ 61.8 µM)
COc1cc(F)ccc1-c1cc(Nc2cc(CS(C)(=N)=O)ccn2)ncc1F (single isomer, unassigned; (-)) [Example 3, (−)-5-Fluoro-4-(4-fluoro-2-methoxyphenyl)-N-{4-[(S-methylsulfonimidoyl)methyl]pyridin-2-yl}pyridin-2-amine]				Papp A-B (Mari) (Caco-2 cell monolayers): 133 nm/s; Papp B-A (Mari) (Caco-2 cell monolayers): 197 nm/s; Solubility in water at pH 6.5 [3]: 27 mg/l
COc1cc(F)ccc1-c1cc(Nc2cc(CS(C)(=N)=O)cc(C(F)(F)F)n2)ncc1F (single isomer, unassigned; (-)) [Example 23, (−)-5-Fluoro-4-(4-fluoro-2-methoxyphenyl)-N-{4-[(S-methylsulfonimidoyl)methyl]-6-(trifluoromethyl)pyridin-2-yl}pyridin-2-amine]				Papp A-B (Mari) (Caco-2 cell monolayers): 47 nm/s; Papp B-A (Mari) (Caco-2 cell monolayers): 62 nm/s; Efflux ratio (Caco-2 cell monolayers; Caco-2, 2 μM, Papp B-A / Papp A-B): 1.3

The next lines start with results.

Papp A→B at 2 h, 2 µM (Caco-2 permeation assay) [×10⁻⁶ cm/s]	Papp B→A at 2 h, 2 µM (Caco-2 permeation assay) [×10⁻⁶ cm/s]	efflux ratio at 2 h, 2 µM (Caco-2 permeation assay)	Compound	further results
19.6	14.9	0.76	COc1cc(F)ccc1-c1cc(Nc2cc(CS(C)(=N)=O)cc(C)n2)ncc1F (racemic) [Example 4, (rac)-5-Fluoro-4-(4-fluoro-2-methoxyphenyl)-N-{6-methyl-4-[(S-methylsulfonimidoyl)methyl]pyridin-2-yl}pyridin-2-amine]	
14.1	13.5	0.96	COc1cc(F)ccc1-c1cc(Nc2cc(CS(C)(=N)=O)cc(F)n2)ncc1F (racemic) [Example 17, (rac)-5-Fluoro-4-(4-fluoro-2-methoxyphenyl)-N-{6-fluoro-4-[(S-methylsulfonimidoyl)methyl]pyridin-2-yl}pyridin-2-amine]	
5.1	3.3	0.64	COc1cc(F)ccc1-c1cc(Nc2cc(CS(C)(=N)=O)cc(C(F)(F)F)n2)ncc1F (racemic) [Example 21, (rac)-5-Fluoro-4-(4-fluoro-2-methoxyphenyl)-N-{4-[(S-methylsulfonimidoyl)methyl]-6-(trifluoromethyl)pyridin-2-yl}pyridin-2-amine]	
4.8	5.3	1.1	COc1cc(F)ccc1-c1cc(Nc2cc(CS(C)(=N)=O)cc(C(F)(F)F)n2)ncc1F (single isomer, unassigned; (+)) [Example 22, (+)-5-Fluoro-4-(4-fluoro-2-methoxyphenyl)-N-{4-[(S-methylsulfonimidoyl)methyl]-6-(trifluoromethyl)pyridin-2-yl}pyridin-2-amine]	
